Data from the supplement of paper PMC8960247.
Counter-ions that a name gives are not always drawn. ± gives the standard error.

Legend:
621-102 (TSC2-deficient) [1] = assay: relative viability vs DMSO (fraction); higher = less cytotoxic; settings: serum: 0.1% FBS, 72 h
621-103 (TSC2-rescued) = assay: relative viability vs DMSO; higher = less cytotoxic; settings: serum: 10% FBS, 72 h
621-102 (TSC2-deficient) [2] = assay: as above; settings: serum: 10% FBS, 72 h

Structure (SMILES)	relative viability (621-102 (TSC2-deficient) [1]; 0.0128 nM)	relative viability (621-102 (TSC2-deficient) [1]; 0.064 nM)	relative viability (621-102 (TSC2-deficient) [1]; 0.32 nM)	relative viability (621-102 (TSC2-deficient) [1]; 1.6 nM)	relative viability (621-102 (TSC2-deficient) [1]; 8 nM)	relative viability (621-102 (TSC2-deficient) [1]; 40 nM)	relative viability (621-102 (TSC2-deficient) [1]; 200 nM)	relative viability (621-102 (TSC2-deficient) [1]; 1000 nM)	relative viability (621-102 (TSC2-deficient) [1]; 5000 nM)	relative viability (621-103 (TSC2-rescued); 0.0001 µM)	relative viability (621-103 (TSC2-rescued); 0.001 µM)	relative viability (621-103 (TSC2-rescued); 0.01 µM)	relative viability (621-103 (TSC2-rescued); 0.1 µM)	relative viability (621-103 (TSC2-rescued); 1 µM)	relative viability (621-103 (TSC2-rescued); 10 µM)	relative viability (621-102 (TSC2-deficient) [2]; 0.0001 µM)	relative viability (621-102 (TSC2-deficient) [2]; 0.001 µM)	relative viability (621-102 (TSC2-deficient) [2]; 0.01 µM)	relative viability (621-102 (TSC2-deficient) [2]; 0.1 µM)	relative viability (621-102 (TSC2-deficient) [2]; 1 µM)	relative viability (621-102 (TSC2-deficient) [2]; 10 µM)
COc1cccc2c1C(=O)c1c(O)c3c(c(O)c1C2=O)C[C@@](O)(C(=O)CO)C[C@@H]3O[C@H]1C[C@H](N)[C@H](O)[C@H](C)O1 [Doxorubicin (adriamycin)]	0.343	0.2	0.0923	0.107	0.128	0.0761	0.0129	0.00359	0.00442	–	–	–	–	–	–	–	–	–	–	–	–
COC1=C2C[C@@H](C)C[C@H](OC)[C@H](O)[C@@H](C)/C=C(\C)[C@H](OC(N)=O)[C@@H](OC)/C=C\C=C(/C)C(=O)NC(=CC1=O)C2=O [Geldanamycin]	0.476	0.259	0.399	0.172	0.306	0.27	0.12	0.0204	0.0125	98.8 ± 6.2%	77.8 ± 1.1%	33.3 ± 7.4%	10.09 ± 0.062%	3.46 ± 0.37%	3.05 ± 0.2%	90.7 ± 2.4%	91.7 ± 1.6%	62.3 ± 3%	39.82 ± 0.13%	28.8 ± 1.5%	8.32 ± 0.19%
C#Cc1cccc(Nc2ncnc3cc(OC)c(OCCCCCCC(=O)NO)cc23)c1 [CUDC-101]	0.714	0.529	0.505	0.386	0.343	0.123	0.127	0.005	0.0015	94.9 ± 1.2%	99.73 ± 0.74%	97.8 ± 1.4%	93.79 ± 0.69%	83.8 ± 2.3%	2.28 ± 0.2%	110.7 ± 0.61%	108 ± 6.5%	104 ± 1.9%	95.14 ± 0.26%	85.2 ± 2%	30.6 ± 1.5%
CN(C)C1CCN(C(=O)c2ccc(NC(=O)Nc3ccc(-c4nc(N5CCOCC5)nc(N5CCOCC5)n4)cc3)cc2)CC1 [PKI587]	0.515	0.487	0.471	0.338	0.266	0.196	0.128	0.0333	0.0113	–	–	–	–	–	–	–	–	–	–	–	–
O=S(=O)(c1cccc2cnccc12)N1CCCNCC1 [Fasudil HCl]	–	–	–	–	–	–	–	–	–	102 ± 2.1%	98.11 ± 0.26%	99.94 ± 0.62%	97.3 ± 1.3%	97.052 ± 0.09%	101.9 ± 0.26%	95.7 ± 1.9%	111.14 ± 0.069%	100 ± 7.1%	107.7 ± 0.97%	110 ± 3.2%	83.5 ± 3.1%
COc1cc2c(cc1O)CC[C@@H]1[C@@H]2CC[C@]2(C)[C@@H](O)CC[C@@H]12 [2-Methoxyestradiol]	–	–	–	–	–	–	–	–	–	107 ± 2.6%	103.2 ± 0.73%	98.66 ± 0.82%	98.8 ± 2%	82.5 ± 3.2%	53.7 ± 0.91%	121 ± 1.9%	118 ± 3.8%	112 ± 2.2%	107 ± 3.3%	80 ± 2.5%	39.8 ± 1.9%
CO/N=C(\C(=O)N[C@@H]1C(=O)N2C(C(=O)O)=C(CSC(=O)c3ccco3)CS[C@H]12)c1csc(N)n1 [Ceftiofur HCl]	–	–	–	–	–	–	–	–	–	98.6 ± 4.3%	99.23 ± 0.84%	94.4 ± 3%	97.5 ± 5.2%	94.3 ± 1.6%	94.2 ± 3.3%	116 ± 6.8%	112.1 ± 0.33%	123 ± 2%	117 ± 5.6%	116 ± 2%	110 ± 1.9%
O=C1NC(=O)/C(=C/c2ccc3c(c2)OC(F)(F)O3)S1	–	–	–	–	–	–	–	–	–	98.2 ± 7.7%	91.4 ± 7.6%	90.7 ± 1.1%	95.5 ± 2.7%	98.1 ± 6.7%	88.49 ± 0.37%	104 ± 2.5%	97.7 ± 4.8%	102 ± 1.9%	104.3 ± 0.58%	100.2 ± 0.23%	102.4 ± 0.35%
O=C(NOC[C@H](O)CO)c1ccc(F)c(F)c1Nc1ccc(I)cc1F	–	–	–	–	–	–	–	–	–	96.2 ± 1.3%	98.8 ± 2.7%	100.2 ± 0.66%	94.5 ± 0.99%	87.31 ± 0.23%	64.6 ± 1.8%	98.6 ± 2.5%	104 ± 4.5%	106.7 ± 0.59%	106.2 ± 0.49%	98.6 ± 1%	52.32 ± 0.36%
CC(=O)SCC(Cc1ccccc1)C(=O)NCC(=O)OCc1ccccc1 (stereo unspecified) [Racecadotril]	–	–	–	–	–	–	–	–	–	104 ± 4.4%	95.5 ± 2%	101 ± 4.2%	101 ± 3.7%	106 ± 1.2%	99.3 ± 2.2%	134 ± 1.7%	120 ± 3.8%	122 ± 1.8%	107 ± 3.7%	114 ± 5.8%	113 ± 1.3%
CC(C)c1nc(CN(C)C(=O)N[C@H](C(=O)N[C@@H](Cc2ccccc2)C[C@H](O)[C@H](Cc2ccccc2)NC(=O)OCc2cncs2)C(C)C)cs1 [Ritonavir]	–	–	–	–	–	–	–	–	–	99.5 ± 0.28%	99.3 ± 1.5%	98.8 ± 0.17%	97.77 ± 0.48%	97.6 ± 2.4%	98.28 ± 0.37%	106.1 ± 0.46%	98.8 ± 4.8%	105 ± 4.1%	104 ± 1.4%	100 ± 1.4%	102 ± 2.6%
C[C@H](NC(=O)Cc1cc(F)cc(F)c1)C(=O)N[C@H](C(=O)OC(C)(C)C)c1ccccc1 [DAPT (GSI-IX)]	–	–	–	–	–	–	–	–	–	94.6 ± 6.5%	105.2 ± 0.68%	103.7 ± 0.49%	101.4 ± 0.89%	97.2 ± 2.8%	98.2 ± 1.4%	104 ± 4.3%	99.1 ± 1.5%	100 ± 2.3%	97.82 ± 0.41%	97.7 ± 4.1%	97.1 ± 5.9%
